Experimental findings from patent US9458463B2, “Method for treatment of diabetes by a small molecule inhibitor for GRK5” (MAX-PLANCK-GESELLSCHAFT ZUR FÖRDERUNG DER WISSENSCHAFTEN …, priority 2010, dated 2016) are described below.

pIC50: −log10 of the molar value. Where only a bound is given, the exact number is not on record here.

The test system of test [1] is C2C12 cells. The test can be described thus: 2-NBDG glucose uptake in C2C12 cells (flow cytometry). The format is cell-based, mouse. The settings on record: group II; at 5 μM, 1 h, 100 μM 2-NBDG. Here is the method:
(§1) 2-NBDG is a fluorescently-labeled deoxyglucose analog that is commonly used to directly monitor glucose uptake by living cells. For 2-NBDG detection, cells were cultured for 1 h together with 5 μM of a small molecule in glucose free media supplied with 100 μM 2-NBDG at 37° C. before collecting. Furthermore, as internal controls, samples of glucose free media, rFc4espectively glucose free media with test compound, were tested. Subsequently, cells were washed, trypsinized and harvested in ice-cold PBS before centrifuged at 1.6×10^3 rpm at 4° C. Cells were analyzed by flow cytometry (FACS Calibur, BD Bioscience, respectively a BD Accuri® C6 Flow Cytometer).
as §1, with “an inventive compound” for “a small molecule”, “media,” for “media, rFc4espectively”, “compound, respectively glucose free media supplied with 100 μM 2-NBDG” for “compound,”
(In flow cytometry, cells or beads pass a laser one at a time.)

Test [2] has as its system C2C12 cells. Description: Cell viability assay (CellTiter-Glo / automated cell number) in C2C12. The format is cell-based. The settings on record: Mus musculus, read-out: Inhibition of cell viability IC50. Summed up:
(§2)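 ATP read by CellTiter-Glo luminescence after 10 min lysis at RT. Imaging variant: 10000 cells/well treated 72 h, then fixed and stained with Hoechst 33342 (20 μg/ml, 30 min, 37 °C). Nuclei counted automatically over six fields at 10×, compared with untreated controls, giving IC50.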
For orientation: ATP-based viability assays read luminescence as a measure of living cells.

The target of another test is T1, full length GRK5 (Homo sapiens, UniProt P34947).
T1 construct: 6/2 fold concentrated full length GRK5 (Millipore, #14-714) in reaction buffer; purchased Millipore 14-714
Description: GRK5 kinase activity assay, ADP Glo Kinase Assay technology (Promega). The settings on record: group II; ADP Glo Kinase Assay (Table 9-B). The format is biochemical. In outline:
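Casein (10 μM) phosphorylation with 100 μM ATP in 20 mM MES pH 6.0, 1 mM DTT, 10 mM MgCl2, 0.01% Tween20, 120 min at room temperature; ADP quantified by ADP-Glo luminescence.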
(In general: In ADP-Glo the light output rises with the ADP produced.)

In the next test the test system is HepG2 cells. Description: Cell viability assay (CellTiter-Glo / automated cell number) in HepG2. The test is classed as cell-based. As to conditions: Homo sapiens, read-out: Inhibition of cell viability IC50. Summed up:
as §2

A further test relates to beta TC6 cells. The test can be described thus: Cell viability assay (CellTiter-Glo / automated cell number) in beta TC6. The format is cell-based. As to conditions: Mus musculus, read-out: Inhibition of cell viability IC50. In outline: as §2
A further test deals with T2, GRK5 (Homo sapiens, UniProt P34947).
T2 construct: purchased Millipore (KinaseProfiler service)
The test can be described thus: Millipore KinaseProfiler radiometric filtration binding assay. The format is biochemical. As to conditions: group II; Millipore KinaseProfiler (Table 10). The protocol:
(§3) As alternative, IC50 values are determined by a radiometric based filtration binding assay, namely Millipore KinaseProfiler™. GRK5 is incubated with 8 mM MOPS pH7.0, 0.2 mM EDTA, 2 mg/mL casein, 10 mM MgAcetate and […] (specific activity approx. 500 cpm/pmol, concentration as required). The reaction is initiated by the addition of the MgATP mix. After incubation for 40 minutes at room temperature, the reaction is stopped by the addition of 3% phosphoric acid solution. 10 μL of the reaction is then spotted onto a P30 filtermat and washed three times for 5 minutes in 75 mM phosphoric acid and once in methanol prior to drying and scintillation counting.
as §3, with “IC50” for “As alternative, IC50”, “pH 7.0,” for “pH7.0,”

A further test concerns 3T3-L1 cells. The test can be described thus: Cell viability assay (CellTiter-Glo / automated cell number) in 3T3-L1. The format is cell-based. As to conditions: Mus musculus, read-out: Inhibition of cell viability IC50. Summed up: as §2
Another test concerns 3T3-L1 pre-adipocytes. Description: 2-NBDG uptake in 3T3-L1 pre-adipocytes. The test is classed as cell-based. The settings on record: GRK5 screen compounds.
Test [3] concerns beta-TC6 insulinoma cells. The test can be described thus: Insulin release by beta-TC6 cells, rat/mouse insulin ELISA, high glucose. The test is classed as cell-based. The settings on record: Mus musculus, Beta-TC6, 2 h, group II; 5 μM, 2 h, high glucose (4.5 g/L); % increase in regard to DMSO control (set at 0%). The protocol:
(§4) Release of insulin was detected using a rat/mouse insulin ELISA.
After incubation, the supernatant of the beta-TC6 insulinoma cells was diluted 1:20. The insulin release was measured with rat/mouse insulin ELISA (Merck Millipore Darmstadt, Cat. # EZRMI-13K) by following the manufacture protocol. The enzyme activity of the horseradish peroxidase of the immobilized biotinylated antibodies was monitored spectrophotometrically by the increased absorbency at 490 nm, and corrected by the absorbency at 610 nm.
as §4
The effect on the insulin release of each kinase depletion was monitored by using a rat/mouse insulin ELISA.
For the validation of the negative modulating kinases SCYL1, GRK5, and ADCK1, the target genes were depleted using four different siRNA-sequences each (FIG. 2A-D). The gene-depletion was measured via mRNA-levels after 72 hours while the insulin release was measured using a rat/mouse insulin ELISA after two hours incubation.

T1 sequence (P34947 whole entry): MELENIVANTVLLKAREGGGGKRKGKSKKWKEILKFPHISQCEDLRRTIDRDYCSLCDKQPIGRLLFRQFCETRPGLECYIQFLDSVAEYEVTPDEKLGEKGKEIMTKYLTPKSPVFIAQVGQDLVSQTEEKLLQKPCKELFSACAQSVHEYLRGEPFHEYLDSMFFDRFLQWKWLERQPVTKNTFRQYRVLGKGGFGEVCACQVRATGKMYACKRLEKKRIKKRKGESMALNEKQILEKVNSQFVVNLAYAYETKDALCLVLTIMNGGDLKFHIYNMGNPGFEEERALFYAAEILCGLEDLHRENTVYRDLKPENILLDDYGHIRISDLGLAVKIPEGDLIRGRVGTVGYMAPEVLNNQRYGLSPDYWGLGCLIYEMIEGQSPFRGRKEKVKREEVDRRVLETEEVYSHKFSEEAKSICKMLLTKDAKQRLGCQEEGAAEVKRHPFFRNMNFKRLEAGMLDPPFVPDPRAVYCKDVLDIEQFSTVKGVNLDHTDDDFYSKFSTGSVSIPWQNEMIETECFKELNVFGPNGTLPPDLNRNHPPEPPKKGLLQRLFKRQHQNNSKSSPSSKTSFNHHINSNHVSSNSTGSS
T2 sequence (P34947 whole entry): as above

As to `C[C@@H](NC(=O)c1ccc2c(c1)/C(=C/c1ccc(C(=O)N3CCN(C)CC3)cc1)C(=O)N2)c1ccccc1` [II.143, (3Z)-3-[4-(4-methyl-piperazine-1-carbonyl)-benzylidene]-2-oxo-2,3-dihydro-1H-indole-5-carboxylic acid (1R)-(1-phenyl-ethyl)-amide], in the test with C2C12 cells [1], the “2-NBDG Glucose Uptake [%]” value was 72%.
As a reminder, the pIC50 is −log10 of the IC50, conventionally taken in molar units. For the molecule `Cc1[nH]c(/C=C2\C(=O)Nc3ccc(C(=O)N[C@H](C)c4cccc(Cl)c4)cc32)c(C)c1C(=O)N1CCCCC1` [II.55, (3Z)-N-[(1R)-1-(3-chlorophenyl)ethyl]-3-{[3,5-dimethyl-4-(piperidin-1-ylcarbonyl)-1H-pyrrol-2-yl]methylene}-2-oxoindoline-5-carboxamide], the negative-log IC50 (pIC50) is 5.85 in the test on C2C12 cells [2]; 6.00 to 7.00 at full length GRK5; 6.10 with HepG2 cells; 5.96 with beta TC6 cells; 6.00 to 7.00 on GRK5; 6.07 in the test on 3T3-L1 cells.
Take `Cc1ccc([C@@H](C)NC(=O)c2ccc3c(c2)/C(=C/Nc2ccc(CN4CCCCC4)cc2)C(=O)N3)cc1` [II.72, (3Z)-N-[(1R)-1-(4-methylphenyl)ethyl]-2-oxo-3-({[4-(piperidin-1-ylmethyl)phenyl]amino}methylene)indoline-5-carboxamide]: the pIC50 is less than 5.00 in the test with C2C12 cells [2]; 6.00 to 7.00 at full length GRK5; 5.68 in the test on HepG2 cells; 5.90 with beta TC6 cells; 6.00 to 7.00 at GRK5; 5.81 with 3T3-L1 cells.
`CC[C@@H](NC(=O)c1ccc2c(c1)/C(=C/c1[nH]c(C)c(C(=O)N3CCCCC3)c1C)C(=O)N2)c1ccccc1` [II.63, (3Z)-3-{[3,5-dimethyl-4-(piperidin-1-ylcarbonyl)-1H-pyrrol-2-yl]methylene)-2-oxo-N-[(1R)-1-phenylpropyl]indoline-5-carboxamide]: the pIC50 was 5.76 with C2C12 cells [2]; 6.00 to 7.00 against full length GRK5; 5.90 in the test with HepG2 cells; 5.90 in the test on beta TC6 cells; 6.00 to 7.00 at GRK5; 6.03 with 3T3-L1 cells.
Take `Cc1[nH]c(/C=C2\C(=O)Nc3ccc(C(=O)N[C@@H]4CCc5ccccc54)cc32)c(C)c1C(=O)N1CCC[C@@H]1CN1CCCC1` [II.30, (3Z)-N-[(1R)-2,3-dihydro-1H-inden-1-yl]-3-[(3,5-dimethyl-4-{[(2R)-2-(pyrrolidin-1-ylmethyl)pyrrolidin-1-yl]carbonyl}-1H-pyrrol-2-yl)methylene]-2-oxoindoline-5-carboxamide]: the pIC50 with C2C12 cells [2] is less than 5.00; against full length GRK5, 5.00 to 5.70; with HepG2 cells, 5.55; in the test on beta TC6 cells, 5.77; at GRK5, 5.00 to 5.70; with 3T3-L1 cells, 6.09.
Consider `C[C@@H](NC(=O)c1ccc2c(c1)/C(=C/Nc1ccc(CN3CCCCC3)cc1)C(=O)N2)c1ccc(Cl)cc1` [II.73, (3Z)-N-[(1R)-1-(4-chlorophenyl)ethyl]-2-oxo-3-({[4-(piperidin-1-ylmethyl)phenyl]amino}methylene)indoline-5-carboxamide], for which the negative logarithm of the IC50 (pIC50) is 5.63 with C2C12 cells [2]; 6.00 to 7.00 on full length GRK5; 6.05 with HepG2 cells; 6.14 in the test on beta TC6 cells; 6.00 to 7.00 at GRK5; 5.56 in the test on 3T3-L1 cells. Moreover, the “2-NBDG Glucose Uptake [%]” value in the test with C2C12 cells [1] was determined as 127%.
As to `CC[C@@H](NC(=O)c1ccc2c(c1)/C(=C/c1[nH]c(C)c(C(=O)N3CCC[C@H]3CN3CCCC3)c1C)C(=O)N2)c1ccccc1` [II.46, (3Z)-3-[(3,5-dimethyl-4-{[(2S)-2-(pyrrolidin-1-ylmethyl)pyrrolidin-1-yl]carbonyl}-1H-pyrrol-2-yl)methylene]-2-oxo-N-[(1R)-1-phenylpropyl]indoline-5-carboxamide], the negative logarithm of the IC50 (pIC50) in the test on C2C12 cells [2] was 5.05; on full length GRK5, more than 7.00; with HepG2 cells, 6.11; in the test with beta TC6 cells, 6.66; at GRK5, more than 7.00; in the test with 3T3-L1 cells, 6.49.
Regarding `Nc1cccc(-c2cc3cnc(Nc4cccnc4)cc3[nH]2)c1` [compound 2, 2-(3-aminophenyl)-N-(3-pyridyl)-1H-pyrrolo[3,2-c]pyridin-6-amine], the “Glucose uptake (2-NBDG) in 3T3-L1 pre-adipocytes” value in the test with 3T3-L1 pre-adipocytes was “stimulated”.
On to `COc1ccc([C@@H](C)NC(=O)c2ccc3c(c2)/C(=C/Nc2ccc(CN4CCCCC4)cc2)C(=O)N3)cc1` [II.70, (3Z)-N-[(1R)-1-(4-methoxyphenyl)ethyl]-2-oxo-3-({[4-(piperidin-1-ylmethyl)phenyl]amino}methylene)indoline-5-carboxamide], for which the pIC50 in the test with C2C12 cells [2] was less than 5.00; at full length GRK5, 6.00 to 7.00; in the test on HepG2 cells, 5.74; with beta TC6 cells it was 5.83; at GRK5 it was 6.00 to 7.00; with 3T3-L1 cells it was 5.67.
Regarding `CC[C@H](NC(=O)c1ccc2c(c1)/C(=C/c1[nH]c(C)c(C(=O)N3CCC[C@H]3CN3CCCC3)c1C)C(=O)N2)c1ccccc1` [II.47, (3Z)-3-[(3,5-dimethyl-4-{[(2S)-2-(pyrrolidin-1-ylmethyl)pyrrolidin-1-yl]carbonyl}-1H-pyrrol-2-yl)methylene]-2-oxo-N-[(1S)-1-phenylpropyl]indoline-5-carboxamide], the pIC50 in the test with C2C12 cells [2] was less than 5.00; on full length GRK5 it was 5.00 to 5.70; in the test on HepG2 cells it was 5.49; in the test on beta TC6 cells, 5.66; at GRK5, 5.00 to 5.70; with 3T3-L1 cells it was 5.87.
As to `CCC(NC(=O)c1ccc2c(c1)/C(=C/c1[nH]c(C)c(C(=O)N3CCN(C)CC3)c1C)C(=O)N2)c1ccc(Cl)cc1` (stereo not drawn) [II.12, (3Z)-N-[1-(4-chlorophenyl)propyl]-3-({3,5-dimethyl-4-[(4-methylpiperazin-1-yl)carbonyl]-1H-pyrrol-2-yl}methylene)-2-oxoindoline-5-carboxamide], the pIC50 on full length GRK5 and at GRK5 was 6.00 to 7.00 throughout. The molecule further yielded an activation at 5 µM in [3] of 214%.
In the case of `CC[C@@H](NC(=O)c1ccc2c(c1)/C(=C/c1[nH]c(C)c(C(=O)N3CCC(N4CCN(C)CC4)CC3)c1C)C(=O)N2)c1ccccc1` [II.53, (3Z)-3-[(3,5-dimethyl-4-{[4-(4-methylpiperazin-1-yl)piperidin-1-yl]carbonyl}-1H-pyrrol-2-yl)methylene]-2-oxo-N-[(1R)-1-phenylpropyl]indoline-5-carboxamide], the pIC50 in the test on C2C12 cells [2] is less than 5.00; against full length GRK5 it was 6.00 to 7.00; in the test on HepG2 cells, 5.89; with beta TC6 cells, 5.81; at GRK5 it was 6.00 to 7.00; with 3T3-L1 cells it was 5.94.
